Values after ≈ are worked out from the molar mass of the structure shown. Structures can show the parent of a compound that is named as a salt. Where two headings read alike, the source gives them in different places.
Columns and labels:
[1] = system: Staph. aureus ATCC 6538P; assay: In vitro antibacterial activity, agar dilution MIC; type: cell-based; conditions: Staphylococcus aureus, ATCC6538P
Experimental: (§1) Each plate was inoculated with 1:100 (or 1:10 for slow-growing strains, primarily Micrococcus and Streptococcus) dilutions of up to 32 different microorganisms, using a Steers replicator block calibrated to deliver approximately 10^4 colony forming units (CFUs). The inoculated plates were incubated at from about 35° C. to about 37° C. for approximately 20-24 hours. In addition, a control plate using BHI agar containing no test compound was prepared and incubated at the beginning and at the end of each test. The quinolone antibacterial ciprofloxacin was used as a control ("Cntl").
(§2) The MIC was defined as the lowest concentration of test compound yielding no growth (a slight haze or sparsely isolated colonies at the inoculum spot) as compared to the growth control containing no test compound.

[2] = system: Staph. aureus A5177; assay: In vitro antibacterial activity, agar dilution MIC; type: cell-based; conditions: Staphylococcus aureus
Experimental: as §1, §2

[3] = system: Staph. aureus 5278; assay: In vitro antibacterial activity, agar dilution MIC; type: cell-based; conditions: Staphylococcus aureus
Experimental: as §1, §2

[4] = system: Staph. aureus 642A; assay: In vitro antibacterial activity, agar dilution MIC; type: cell-based; conditions: Staphylococcus aureus
Experimental: as §1, §2

[5] = system: Staph. aureus NCTC10649M; assay: In vitro antibacterial activity, agar dilution MIC; type: cell-based; conditions: Staphylococcus aureus
Experimental: as §1, §2

[6] = system: Staph. aureus CMX 553; assay: In vitro antibacterial activity, agar dilution MIC; type: cell-based; conditions: Staphylococcus aureus, CMX553
Experimental: as §1, §2

[7] = system: Staph. aureus 1775 Cipro. R.; assay: In vitro antibacterial activity, agar dilution MIC; type: cell-based; conditions: Staphylococcus aureus
Experimental: as §1, §2

[8] = system: Staph. epidermidis 3519; assay: In vitro antibacterial activity, agar dilution MIC; type: cell-based; conditions: Staphylococcus epidermidis
Experimental: as §1, §2

[9] = system: Entero. faecium ATCC 8043; assay: In vitro antibacterial activity, agar dilution MIC; type: cell-based; conditions: Enterococcus faecium, ATCC8043
Experimental: as §1, §2

[10] = system: Strep. bovis A5169; assay: In vitro antibacterial activity, agar dilution MIC; type: cell-based; conditions: Streptococcus equinus
Experimental: as §1, §2

[11] = system: Strep. agalactiae CMX 508; assay: In vitro antibacterial activity, agar dilution MIC; type: cell-based; conditions: Streptococcus agalactiae, CMX508
Experimental: as §1, §2

[12] = system: Strep. pyogenes EES61; assay: In vitro antibacterial activity, agar dilution MIC; type: cell-based; conditions: Streptococcus pyogenes
Experimental: as §1, §2

[13] = system: Strep. pyogenes 930 CONST; assay: In vitro antibacterial activity, agar dilution MIC; type: cell-based; conditions: Streptococcus pyogenes
Experimental: as §1, §2

[14] = system: Strep. pyogenes 2548 INDUC; assay: microbe, parasite or virus in culture; type: cell-based; conditions: Streptococcus pyogenes, 2548INDUC
Experimental: as §1, §2

[15] = system: M. luteus ATCC 9341; assay: In vitro antibacterial activity, agar dilution MIC; type: cell-based; conditions: Micrococcus luteus, ATCC9341
Experimental: as §1, §2

[16] = system: M. luteus ATCC 4698; assay: In vitro antibacterial activity, agar dilution MIC; type: cell-based; conditions: Micrococcus luteus, ATCC4698
Experimental: as §1, §2

[17] = system: Escherichia coli Juhl; assay: In vitro antibacterial activity, agar dilution MIC; type: cell-based
Experimental: as §1, §2

[18] = system: E. coli SS; assay: In vitro antibacterial activity, agar dilution MIC; type: cell-based; conditions: Escherichia coli
Experimental: as §1, §2

[19] = system: E. coli DC-2; assay: In vitro antibacterial activity, agar dilution MIC; type: cell-based; conditions: Escherichia coli, DC2
Experimental: as §1, §2

[20] = system: E. coli H560; assay: In vitro antibacterial activity, agar dilution MIC; type: cell-based; conditions: Escherichia coli
Experimental: as §1, §2

[21] = system: E. coli KNK 437; assay: In vitro antibacterial activity, agar dilution MIC; type: cell-based; conditions: Escherichia coli, KNK437
Experimental: as §1, §2

[22] = system: Enter. aerogenes ATCC 13048; assay: In vitro antibacterial activity, agar dilution MIC; type: cell-based; conditions: Klebsiella aerogenes, ATCC13048
Experimental: as §1, §2

[23] = system: Klebs. pneumoniae ATCC 8045; assay: In vitro antibacterial activity, agar dilution MIC; type: cell-based; conditions: Klebsiella pneumoniae, ATCC8045
Experimental: as §1, §2

[24] = system: Providencia stuartii CMX 640; assay: In vitro antibacterial activity, agar dilution MIC; type: cell-based; conditions: CMX640
Experimental: as §1, §2

[25] = system: P. aeruginosa BMH 10; assay: In vitro antibacterial activity, agar dilution MIC; type: cell-based; conditions: Pseudomonas aeruginosa, BMH10
Experimental: as §1, §2

[26] = system: P. aeruginosa A5007; assay: In vitro antibacterial activity, agar dilution MIC; type: cell-based; conditions: Pseudomonas aeruginosa
Experimental: as §1, §2

[27] = system: P. aeruginosa K799/WT; assay: In vitro antibacterial activity, agar dilution MIC; type: cell-based; conditions: Pseudomonas aeruginosa
Experimental: as §1, §2

[28] = system: P. aeruginosa K799/61; assay: In vitro antibacterial activity, agar dilution MIC; type: cell-based; conditions: Pseudomonas aeruginosa, K799/61
Experimental: as §1, §2

[29] = system: Pseudomonas cepacia 296I; assay: In vitro antibacterial activity, agar dilution MIC; type: cell-based; conditions: Burkholderia cepacia
Experimental: as §1, §2

[30] = system: Acinetob. calcoaceticus CMX 669; assay: In vitro antibacterial activity, agar dilution MIC; type: cell-based
Experimental: as §1, §2

[31] = system: P. aeruginosa 2862; assay: In vitro antibacterial activity, agar dilution MIC; type: cell-based; conditions: Pseudomonas aeruginosa, 2862
Experimental: as §1, §2

[32] = system: Myco. smegmatis ATCC 114; assay: In vitro antibacterial activity, agar dilution MIC; type: cell-based; conditions: Mycolicibacterium smegmatis, ATCC114
Experimental: as §1, §2

[33] = system: Nocardia asteroides ATCC 9970; assay: In vitro antibacterial activity, agar dilution MIC; type: cell-based; conditions: ATCC9970
Experimental: as §1, §2

[34] = system: P. aeruginosa 5263; assay: microbe, parasite or virus in culture; conditions: Pseudomonas aeruginosa
Experimental: as §1, §2

[35] = system: Candida albicans CCH 442; assay: In vitro antibacterial activity, agar dilution MIC; conditions: Candida albicans, CCH442
Experimental: as §1, §2

[36] = Staph. aureus CMX 553, BHI agar dilution, 20-24 hours, read-out: MIC
[37] = Strep. agalactiae CMX 508, BHI agar dilution, 20-24 hours, read-out: MIC
[38] = Klebs. pneumoniae ATCC 8045, BHI agar dilution, 20-24 hours, read-out: MIC
[39] = Providencia stuartii CMX 640, BHI agar dilution, 20-24 hours, read-out: MIC
[40] = Nocardia asteroides ATCC 9970, BHI agar dilution, 20-24 hours, read-out: MIC

Compound: CC[C@H]1CN(c2c(F)cn3c(=O)c(C(=O)O)cc(C4CC4)c3c2C)C[C@H]1N (relative stereo) [Ex. 3, 8-(cis-3-amino-4-ethylpyrrolidin-1-yl)-1-cyclopropyl-7-fluoro-4H-9-methyl-4-oxo-quinolizine-3-carboxylic acid hydrochloride diastereomer A]
- MIC ([1]; Staph. aureus ATCC 6538P, BHI agar dilution, 20-24 hours, read-out: MIC): 0.01 µg/mL
- MIC ([2]; Staph. aureus A5177, BHI agar dilution, 20-24 hours, read-out: MIC): 0.02 µg/mL
- MIC ([3]; Staph. aureus 5278, BHI agar dilution, 20-24 hours, read-out: MIC): 0.02 µg/mL
- MIC ([4]; Staph. aureus 642A, BHI agar dilution, 20-24 hours, read-out: MIC): 0.02 µg/mL
- MIC ([5]; Staph. aureus NCTC10649M, BHI agar dilution, 20-24 hours, read-out: MIC): 0.01 µg/mL
- MIC [6, 36]: 0.02 µg/mL
- MIC ([7]; Staph. aureus 1775 Cipro. R., BHI agar dilution, 20-24 hours, read-out: MIC): 0.78 µg/mL
- MIC ([8]; Staph. epidermidis 3519, BHI agar dilution, 20-24 hours, read-out: MIC): 0.02 µg/mL
- MIC [9]: 0.1 µg/mL
- MIC ([10]; Strep. bovis A5169, BHI agar dilution, 20-24 hours, read-out: MIC): 0.1 µg/mL
- MIC [11, 37]: 0.1 µg/mL
- MIC ([12]; Strep. pyogenes EES61, BHI agar dilution, 20-24 hours, read-out: MIC): 0.1 µg/mL
- MIC ([13]; 930CONST): 0.05 µg/mL
- MIC [14]: 0.05 µg/mL
- MIC [15]: 0.1 µg/mL
- MIC [16]: 0.1 µg/mL
- MIC ([17]; Escherichia coli Juhl, BHI agar dilution, 20-24 hours, read-out: MIC): 0.02 µg/mL
- MIC ([18]; E. coli SS, BHI agar dilution, 20-24 hours, read-out: MIC): 0.002 µg/mL
- MIC ([19]; E. coli DC-2, BHI agar dilution, 20-24 hours, read-out: MIC): 0.2 µg/mL
- MIC ([20]; E. coli H560, BHI agar dilution, 20-24 hours, read-out: MIC): 0.01 µg/mL
- MIC ([21]; E. coli KNK 437, BHI agar dilution, 20-24 hours, read-out: MIC): 0.1 µg/mL
- MIC ([22]; Enter. aerogenes ATCC 13048, BHI agar dilution, 20-24 hours, read-out: MIC): 0.05 µg/mL
- MIC [23, 38]: 0.02 µg/mL
- MIC [24, 39]: 0.78 µg/mL
- MIC ([25]; P. aeruginosa BMH 10, BHI agar dilution, 20-24 hours, read-out: MIC): 0.39 µg/mL
- MIC ([26]; P. aeruginosa A5007, BHI agar dilution, 20-24 hours, read-out: MIC): 0.39 µg/mL
- MIC ([27]; P. aeruginosa K799/WT, BHI agar dilution, 20-24 hours, read-out: MIC): 0.39 µg/mL
- MIC [28]: 0.02 µg/mL
- MIC ([29]; Pseudomonas cepacia 296I, BHI agar dilution, 20-24 hours, read-out: MIC): 0.78 µg/mL
- MIC ([30]; Acinetob. calcoaceticus CMX 669, BHI agar dilution, 20-24 hours, read-out: MIC): 0.02 µg/mL
- MIC [31]: 3.1 µg/mL
- MIC ([32]; Myco. smegmatis ATCC 114, BHI agar dilution, 20-24 hours, read-out: MIC): 0.02 µg/mL
- MIC [33, 40]: 0.39 µg/mL
- MIC [34]: 3.1 µg/mL
- MIC [35]: > 100 µg/mL

Compound: O=C(O)c1cn(C2CC2)c2cc(N3CCNCC3)c(F)cc2c1=O [Control, ciprofloxacin, reference compound]
- MIC [1]: 0.05 µg/mL (≈ 0.151 µM)
- MIC ([2]; A5177): 0.39 µg/mL (≈ 1.18 µM)
- MIC [3]; 5278: 0.39 µg/mL (≈ 1.18 µM)
- MIC ([4]; 642A): 0.39 µg/mL (≈ 1.18 µM)
- MIC ([5]; NCTC10649M): 0.39 µg/mL (≈ 1.18 µM)
- MIC [6, 36]: 0.78 µg/mL (≈ 2.35 µM)
- MIC [7]: > 100 µg/mL
- MIC [8]; 3519: 0.39 µg/mL (≈ 1.18 µM)
- MIC ([9]; Entero. faecium ATCC 8043, BHI agar dilution, 20-24 hours, read-out: MIC): 0.78 µg/mL (≈ 2.35 µM)
- MIC ([10]; A5169): 1.56 µg/mL (≈ 4.71 µM)
- MIC [11, 37]: 0.78 µg/mL (≈ 2.35 µM)
- MIC ([12]; EES61): 0.39 µg/mL (≈ 1.18 µM)
- MIC ([13]; Strep. pyogenes 930 CONST, BHI agar dilution, 20-24 hours, read-out: MIC): 0.78 µg/mL (≈ 2.35 µM)
- MIC [14]: 0.39 µg/mL (≈ 1.18 µM)
- MIC [15]: 3.1 µg/mL (≈ 9.36 µM)
- MIC [16]: 1.56 µg/mL (≈ 4.71 µM)
- MIC ([17]; Escherichia coli): 0.05 µg/mL (≈ 0.151 µM)
- MIC [18]: 0.005 µg/mL (≈ 0.0151 µM)
- MIC [19]: 0.2 µg/mL (≈ 0.604 µM)
- MIC ([20]; H560): 0.01 µg/mL (≈ 0.0302 µM)
- MIC [21]: 0.2 µg/mL (≈ 0.604 µM)
- MIC [22]: 0.05 µg/mL (≈ 0.151 µM)
- MIC [23, 38]: 0.01 µg/mL (≈ 0.0302 µM)
- MIC [24, 39]: 0.78 µg/mL (≈ 2.35 µM)
- MIC [25]: 0.1 µg/mL (≈ 0.302 µM)
- MIC ([26]; A5007): 0.2 µg/mL (≈ 0.604 µM)
- MIC ([27]; K799/WT): 0.1 µg/mL (≈ 0.302 µM)
- MIC [28]: 0.02 µg/mL (≈ 0.0604 µM)
- MIC ([29]; 296I): 3.1 µg/mL (≈ 9.36 µM)
- MIC [30]: 0.39 µg/mL (≈ 1.18 µM)
- MIC [31]: 12.5 µg/mL (≈ 37.7 µM)
- MIC [32]: 1.56 µg/mL (≈ 4.71 µM)
- MIC [33, 40]: 25 µg/mL (≈ 75.4 µM)
- MIC [34]: 12.5 µg/mL (≈ 37.7 µM)
- MIC [35]: > 100 µg/mL

Compound: Cc1c(N2C[C@@H]3CCCN[C@@H]3C2)c(F)cn2c(=O)c(C(=O)O)cc(C3CC3)c12 [Ex. 1, 1-cyclopropyl-8-(S,S-2,8-diaza-8-bicyclo[4.3.0]-nonyl)-7-fluoro-4H-9-methyl-4-oxo-quinolizine-3-carboxylic acid hydrochloride]
- MIC [1]: 0.01 µg/mL
- MIC ([2]; A5177): 0.02 µg/mL
- MIC [3]; 5278: 0.01 µg/mL
- MIC ([4]; 642A): 0.02 µg/mL
- MIC ([5]; NCTC10649M): 0.01 µg/mL
- MIC [6]: 0.05 µg/mL
- MIC [7]: 0.39 µg/mL
- MIC [8]; 3519: 0.02 µg/mL
- MIC [9]: 0.1 µg/mL
- MIC ([10]; A5169): 0.05 µg/mL
- MIC [11]: 0.05 µg/mL
- MIC ([12]; EES61): 0.05 µg/mL
- MIC ([13]; 930CONST): 0.05 µg/mL
- MIC [14]: 0.02 µg/mL
- MIC [15]: 0.1 µg/mL
- MIC [16]: 0.1 µg/mL
- MIC ([17]; Escherichia coli): 0.005 µg/mL
- MIC [18]: 0.002 µg/mL
- MIC [19]: 0.05 µg/mL
- MIC ([20]; H560): 0.005 µg/mL
- MIC [21]: 0.05 µg/mL
- MIC [22]: 0.02 µg/mL
- MIC [23]: 0.01 µg/mL
- MIC ([24]; Providencia stuartii): 0.39 µg/mL
- MIC [25]: 0.1 µg/mL
- MIC ([26]; A5007): 0.2 µg/mL
- MIC ([27]; K799/WT): 0.2 µg/mL
- MIC [28]: 0.02 µg/mL
- MIC ([29]; 296I): 0.78 µg/mL
- MIC [30]: 0.02 µg/mL
- MIC [31]: 3.1 µg/mL
- MIC [32]: 0.02 µg/mL
- MIC ([33]; Nocardia asteroides): 3.1 µg/mL
- MIC [34]: 3.1 µg/mL
- MIC [35]: > 100 µg/mL
